Assay results published in patent publication US20260209214A1, “LSD1 MODULATORS” (RECURSION PHARMACEUTICALS, INC., priority 2022, published 2026).
Structures can show the parent of a compound that is named as a salt.

biological target: Recombinant human LSD1 (Homo sapiens, UniProt O60341); experiment: LSD1 inhibition assay (HTRF LSD1 Histone H3K4 mono-demethylation assay, me1->me0); format: biochemical; details: 20 nM recombinant human LSD1, 95 nM H3K4(me1) biotinylated peptide, 15 min preincubation, 60 min at 25° C., read-out: LSD1 inhibition IC50 (nM range)
In short: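 Recombinant human LSD1 (20 nM) pre-incubated 15 min with 10 semi-log compound doses, then 95 nM biotinylated H3K4me1 peptide for 60 min at 25 °C in pH 8.5 Tris/NaCl buffer with 10 μM FAD, 1 mM DTT. HTRF me0-antibody read after 90 min; IC50 from 4-parameter fit.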

Row | Compound | IC50
1 | CC1(O)CCN(c2ccc(CC3CNCCO3)c(F)c2-c2ccc(C#N)c(F)c2)CC1 (centres unmarked) [Example 155, 2′,3-difluoro-6′-(4-hydroxy-4-methylpiperidin-1-yl)-3′-[(morpholin-2-yl)methyl]-[1,1′-biphenyl]-4-carbonitrile] | 100 to 1000 nM
2 | N#Cc1ccc(-c2cc(CC3CNCCO3)ccc2-c2ccn3cnnc3c2)cc1F (centres unmarked) [Example 157, 3-fluoro-5′-[(morpholin-2-yl)methyl]-2′-{[1,2,4]triazolo[4,3-a]pyridin-7-yl}-[1,1′-biphenyl]-4-carbonitrile] | > 1000 nM
3 | N#Cc1ccc(-c2cc(CC3CNCCO3)ccc2C2CCOCC2)cc1F (centres unmarked) [Example 158, 3-fluoro-5′-[(morpholin-2-yl)methyl]-2′-(oxan-4-yl)-[1,1′-biphenyl]-4-carbonitrile] | > 1000 nM
4 | N#Cc1ccc(-c2cccc(CC3CNCCO3)c2N2CC(O)C2)cc1F (centres unmarked) [Example 159, 3-fluoro-2′-(3-hydroxyazetidin-1-yl)-3′-[(morpholin-2-yl)methyl]-[1,1′-biphenyl]-4-carbonitrile] | > 1000 nM
5 | N#Cc1ccc(-c2cc(CC3CN4CCC4CO3)ccc2N2CCC2)cc1F (centres unmarked) [Example 160, 2′-(azetidin-1-yl)-3-fluoro-5′-({4-oxa-1-azabicyclo[4.2.0]octan-3-yl}methyl)-[1,1′-biphenyl]-4-carbonitrile] | > 1000 nM
6 | CCc1cc(CC2CNCCO2)cc(-c2ccc(C#N)cc2)c1Cl (centres unmarked) [Example 161, 2′-chloro-3′-ethyl-5′-[(morpholin-2-yl)methyl]-[1,1′-biphenyl]-4-carbonitrile] | > 1000 nM
7 | N#Cc1ccc(-c2cc(CC3CNCCO3)ccc2C2CCCC2)cc1 (centres unmarked) [Example 162, 2′-cyclopentyl-5′-[(morpholin-2-yl)methyl]-[1,1′-biphenyl]-4-carbonitrile] | > 1000 nM
8 | CC(C)N1CCOC(Cc2ccc(N3CCC3)c(-c3ccc(C#N)c(F)c3)c2)C1 (centres unmarked) [Example 163, 2′-(azetidin-1-yl)-3-fluoro-5′-{[4-(propan-2-yl)morpholin-2-yl]methyl}-[1,1′-biphenyl]-4-carbonitrile] | 100 to 1000 nM
9 | CCN1CCN(c2ccc(CC3CNCCO3)cc2-c2ccc(C#N)c(F)c2)CC1 (centres unmarked) [Example 164, 2′-(4-ethylpiperazin-1-yl)-3-fluoro-5′-[(morpholin-2-yl)methyl]-[1,1′-biphenyl]-4-carbonitrile] | 100 to 1000 nM
10 | CC1(O)CC2(CN(c3ccc(CC4CNCCO4)cc3-c3ccc(C#N)c(F)c3)C2)C1 (centres unmarked) [Example 165, 3-fluoro-2′-{6-hydroxy-6-methyl-2-azaspiro[3.3]heptan-2-yl}-5′-[(morpholin-2-yl)methyl]-[1,1′-biphenyl]-4-carbonitrile] | 100 to 1000 nM
11 | CN1CCC(O)(Cc2cccc(-c3ccc(C#N)c(F)c3)c2C2CC2)CC1 [Example 166, 2′-cyclopropyl-3-fluoro-3′-[(4-hydroxy-1-methylpiperidin-4-yl)methyl]-[1,1′-biphenyl]-4-carbonitrile] | 100 to 1000 nM
12 | N#Cc1ccc(-c2cc(CC3CNCCO3)ccc2N2CCOCC2)cc1F (centres unmarked) [Example 167, 3-fluoro-5′-[(morpholin-2-yl)methyl]-2′-(morpholin-4-yl)-[1,1′-biphenyl]-4-carbonitrile] | > 1000 nM
13 | N#Cc1ccc(-c2cc(C3CNCCO3)ccc2N2CCCCC2)cc1F (centres unmarked) [Example 168, 3-fluoro-5′-(morpholin-2-yl)-2′-(piperidin-1-yl)-[1,1′-biphenyl]-4-carbonitrile] | 100 to 1000 nM
14 | N#Cc1ccc(-c2cccc(CN3[C@@H]4CC[C@H]3[C@@H](N)C4)c2-c2ccns2)cc1F [Example 192, N[C@H]1C[C@H]2CC[C@@H]1N2Cc3cccc(c4ccc(C#N)c(F)c4)c3c5ccns5] | < 10 nM

Other lines, results leading:

Row | IC50 | Compound
15 | 100 to 1000 nM | N#Cc1ccc(-c2cc(CC3CNCCO3)ccc2N2CCC(O)(C(F)(F)F)CC2)cc1F (centres unmarked) [Example 151, 3-fluoro-2′-[4-hydroxy-4-(trifluoromethyl)piperidin-1-yl]-5′-[(morpholin-2-yl)methyl]-[1,1′-biphenyl]-4-]
16 | 100 to 1000 nM | COCC1(O)CCCN(c2ccc(CC3CNCCO3)cc2-c2ccc(C#N)c(F)c2)CC1 (centres unmarked) [Example 152, 3-fluoro-2′-[4-hydroxy-4-(methoxymethyl)azepan-1-yl]-5′-[(morpholin-2-yl)methyl]-[1,1′-biphenyl]-4-carbonitrile]
17 | 25 to 100 nM | Cn1cc(-c2c(CC3CNCCO3)cccc2-c2ccc(C#N)c(F)c2)cn1 (centres unmarked) [Example 153, 3-fluoro-2′-(1-methyl-1H-pyrazol-4-yl)-3′-[(morpholin-2-yl)methyl]-[1,1′-biphenyl]-4-carbonitrile]
18 | 10 to 25 nM | N#Cc1ccc(-c2cccc(COC3CCNC3)c2-c2cnco2)cc1F (centres unmarked) [Example 154, 3-fluoro-2′-(1,3-oxazol-5-yl)-3′-[(pyrrolidin-3-yloxy)methyl]-[1,1′-biphenyl]-4-carbonitrile]
19 | 25 to 100 nM | Cn1nccc1-c1c(CC2CNCCO2)cccc1-c1ccc(C#N)c(F)c1 (centres unmarked) [Example 156, 3-fluoro-2′-(1-methyl-1H-pyrazol-5-yl)-3′-[(morpholin-2-yl)methyl]-[1,1′-biphenyl]-4-carbonitrile]
20 | 10 to 25 nM | N#Cc1ccc(-c2cccc(CN3C[C@]4(N)CC[C@H]3C4)c2-c2ccns2)cc1F [Example 171, 4-[3-[[(1S,4S)-4-amino-2-azabicyclo[2.2.1]heptan-2-yl]methyl]-2-isothiazol-5-yl-phenyl]-2-fluoro-benzonitrile hydrochloride]
21 | 10 to 25 nM | N#Cc1ccc(-c2cccc(CN3C[C@]4(N)CC[C@H]3C4)c2N2CCC2)cc1F [Example 172, N[C@@]12CC[C@@H](C1)N(Cc3cccc(c4ccc(C#N)c(F)c4)c3N5CCC5)C2]
22 | 10 to 25 nM | N#Cc1ccc(-c2cccc(CN3C[C@]4(N)CC[C@H]3C4)c2-c2ocnc2F)cc1F [Example 174, 3'-{[(1S,4S)-4-amino-2-azabicyclo[2.2.1]heptan-2-yl]methyl}-3-fluoro-2'-(4-fluoro-1,3-oxazol-5-yl)-[1,1'-biphenyl]-4-carbonitrile]
23 | < 10 nM | N#Cc1ccc(-c2cccc(CN3C[C@]4(N)CC[C@H]3C4)c2OC(F)F)cc1F [Example 177, 3'-{[(1S,4S)-4-amino-2-azabicyclo[2.2.1]heptan-2-yl]methyl}-2'-(difluoromethoxy)-3-fluoro-[1,1'-biphenyl]-4-carbonitrile]
24 | 25 to 100 nM | N#Cc1ccc(-c2cccc(CN3C[C@]4(N)CC[C@H]3C4)c2C2CC2)cc1 [Example 184, 3'-{[(1S,4S)-4-amino-2-azabicyclo[2.2.1]heptan-2-yl]methyl}-2'-cyclopropyl-[1,1'-biphenyl]-4-carbonitrile]
25 | < 10 nM | N#Cc1ccc(-c2ccc(F)c(CN3C[C@]4(N)CC[C@H]3C4)c2-c2ccns2)cc1F [Example 185, 3'-{[(1S,4S)-4-amino-2-azabicyclo[2.2.1]heptan-2-yl]methyl}-3,4'-difluoro-2'-(1,2-thiazol-5-yl)-[1,1'-biphenyl]-4-carbonitrile]
26 | 10 to 25 nM | N#Cc1ccc(-c2cccc(CN3C[C@]4(N)CC[C@H]3C4)c2-c2scnc2Cl)cc1F [Example 188, 3'-{[(1S,4S)-4-amino-2-azabicyclo[2.2.1]heptan-2-yl]methyl}-2'-(4-chloro-1,3-thiazol-5-yl)-3-fluoro-[1,1'-biphenyl]-4-carbonitrile]
27 | 10 to 25 nM | N#Cc1ccc(-c2ccc(F)c(CN3C[C@]4(N)CC[C@H]3C4)c2C2CC2)cc1F [Example 189, 3'-{[(1S,4S)-4-amino-2-azabicyclo[2.2.1]heptan-2-yl]methyl}-2'-cyclopropyl-3,4'-difluoro-[1,1'-biphenyl]-4-carbonitrile]
28 | 10 to 25 nM | N#Cc1ccc(-c2cccc(CN3C[C@]4(N)CC[C@H]3C4)c2C2CC2)cc1F [Example 193, 3'-{[(1S,4S)-4-amino-2-azabicyclo[2.2.1]heptan-2-yl]methyl}-2'-cyclopropyl-3-fluoro-[1,1'-biphenyl]-4-carbonitrile]
29 | 10 to 25 nM | CN[C@]12CC[C@H](C1)N(Cc1cccc(-c3ccc(C#N)c(F)c3)c1C1CC1)C2 [Example 195, 2'-cyclopropyl-3-fluoro-3'-{[(1R,4R)-4-(methylamino)-2-azabicyclo[2.2.1]heptan-2-yl]methyl}-[1,1'-biphenyl]-4-carbonitrile]
30 | 25 to 100 nM | N#Cc1ccc(-c2cccc(CN3C[C@]4(N)CC[C@H]3C4)c2Cl)cc1F [Example 196, 3'-{[(1S,4S)-4-amino-2-azabicyclo[2.2.1]heptan-2-yl]methyl}-2'-chloro-3-fluoro-[1,1'-biphenyl]-4-carbonitrile]
31 | 10 to 25 nM | CC1(C)CN(Cc2cccc(-c3ccc(C#N)c(F)c3)c2-c2ccns2)CC1N (centres unmarked) [Example 198, 3'-[(4-amino-3,3-dimethylpyrrolidin-1-yl)methyl]-3-fluoro-2'-(1,2-thiazol-5-yl)-[1,1'-biphenyl]-4-carbonitrile]
32 | 10 to 25 nM | N#Cc1ccc(-c2cccc(CN3CCC4CC3CN4)c2C2CC2)cc1F (centres unmarked) [Example 199, 2'-cyclopropyl-3'-({2,6-diazabicyclo[3.2.1]octan-2-yl}methyl)-3-fluoro-[1,1'-biphenyl]-4-carbonitrile]
33 | 25 to 100 nM | C[C@]1(N)CCN(Cc2cccc(-c3ccc(C#N)c(F)c3)c2C2CC2)C1 [Example 202, 3'-{[(3S)-3-amino-3-methylpyrrolidin-1-yl]methyl}-2'-cyclopropyl-3-fluoro-[1,1'-biphenyl]-4-carbonitrile]
34 | 25 to 100 nM | CC1(N)CCN(Cc2cccc(-c3ccc(C#N)c(F)c3)c2C2CC2)CC1 [Example 205, 3'-[(4-amino-4-methylpiperidin-1-yl)methyl]-2'-cyclopropyl-3-fluoro-[1,1'-biphenyl]-4-carbonitrile]
35 | 25 to 100 nM | N#Cc1ccc(-c2ccc(F)c(CN3C[C@]4(N)CC[C@H]3C4)c2Cl)cc1F [Example 208, 3'-{[(1S,4S)-4-amino-2-azabicyclo[2.2.1]heptan-2-yl]methyl}-2'-chloro-3,4'-difluoro-[1,1'-biphenyl]-4-carbonitrile]
